The results in this text go back to ChEMBL document CHEMBL5291721, “A preclinical secondary pharmacology resource illuminates target-adverse drug reaction associations of marketed drugs” (Nat Commun, 2023).

One experiment addresses Histamine H2 receptor (Homo sapiens, UniProt P25021). The experiment is classed as functional, cell-based.
The target in another experiment is T1, Estrogen receptor (Homo sapiens, UniProt P03372).
T1 sequence (P03372 whole entry): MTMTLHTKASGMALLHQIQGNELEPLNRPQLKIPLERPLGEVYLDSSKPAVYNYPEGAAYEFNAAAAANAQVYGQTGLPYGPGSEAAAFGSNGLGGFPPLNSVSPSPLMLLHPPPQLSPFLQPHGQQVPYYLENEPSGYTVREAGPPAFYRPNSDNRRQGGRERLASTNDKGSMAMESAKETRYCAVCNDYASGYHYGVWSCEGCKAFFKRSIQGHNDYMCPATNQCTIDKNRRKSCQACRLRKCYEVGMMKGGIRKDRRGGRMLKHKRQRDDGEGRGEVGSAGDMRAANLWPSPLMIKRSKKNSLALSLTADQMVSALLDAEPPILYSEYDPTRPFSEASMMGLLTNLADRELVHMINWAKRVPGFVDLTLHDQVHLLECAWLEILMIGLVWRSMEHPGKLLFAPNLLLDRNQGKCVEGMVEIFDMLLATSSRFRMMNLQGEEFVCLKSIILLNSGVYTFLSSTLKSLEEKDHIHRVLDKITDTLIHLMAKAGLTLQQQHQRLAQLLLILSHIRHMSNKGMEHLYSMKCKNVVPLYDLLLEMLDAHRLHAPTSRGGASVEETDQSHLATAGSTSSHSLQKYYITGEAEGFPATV

Experiment [1] addresses T2, Muscarinic acetylcholine receptor M1 (Homo sapiens, UniProt P11229).
T2 sequence (P11229 whole entry): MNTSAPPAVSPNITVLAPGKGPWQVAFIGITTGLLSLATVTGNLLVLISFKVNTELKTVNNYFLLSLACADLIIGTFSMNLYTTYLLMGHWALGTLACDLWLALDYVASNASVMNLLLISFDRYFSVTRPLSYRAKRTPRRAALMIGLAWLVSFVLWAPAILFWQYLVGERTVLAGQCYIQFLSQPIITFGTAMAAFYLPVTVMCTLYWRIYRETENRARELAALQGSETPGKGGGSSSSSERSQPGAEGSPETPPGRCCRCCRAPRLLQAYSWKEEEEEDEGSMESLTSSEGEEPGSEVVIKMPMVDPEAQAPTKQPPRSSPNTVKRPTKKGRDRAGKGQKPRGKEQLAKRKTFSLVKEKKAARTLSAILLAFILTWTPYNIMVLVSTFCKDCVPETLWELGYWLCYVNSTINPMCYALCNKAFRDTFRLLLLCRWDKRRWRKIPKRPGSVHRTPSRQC
It counts as functional.

For experiment [2], the target named is Sodium-dependent noradrenaline transporter (Homo sapiens, UniProt P23975).
In experiment [3] the target is T3, 5-hydroxytryptamine receptor 2C (Homo sapiens, UniProt P28335).
T3 sequence (P28335 whole entry): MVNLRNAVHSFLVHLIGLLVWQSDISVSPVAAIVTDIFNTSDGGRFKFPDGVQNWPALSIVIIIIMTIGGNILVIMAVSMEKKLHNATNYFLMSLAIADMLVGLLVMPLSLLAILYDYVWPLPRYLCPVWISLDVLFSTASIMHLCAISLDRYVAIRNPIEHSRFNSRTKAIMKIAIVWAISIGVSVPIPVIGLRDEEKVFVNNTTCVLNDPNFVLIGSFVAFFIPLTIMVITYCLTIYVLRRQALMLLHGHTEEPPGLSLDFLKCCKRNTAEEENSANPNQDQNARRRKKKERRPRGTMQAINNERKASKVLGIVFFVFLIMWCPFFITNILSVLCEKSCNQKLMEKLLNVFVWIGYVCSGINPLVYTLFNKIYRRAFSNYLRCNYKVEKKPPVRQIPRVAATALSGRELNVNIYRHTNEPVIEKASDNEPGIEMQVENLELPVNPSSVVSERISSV

Experiment [4] has as its target Glutamate receptor ionotropic, NMDA 1 (Rattus norvegicus, UniProt P35439).
Experiment [5] has as its target T4, Prostaglandin G/H synthase 1 (Rattus norvegicus, UniProt Q63921).
T4 sequence (Q63921 whole entry): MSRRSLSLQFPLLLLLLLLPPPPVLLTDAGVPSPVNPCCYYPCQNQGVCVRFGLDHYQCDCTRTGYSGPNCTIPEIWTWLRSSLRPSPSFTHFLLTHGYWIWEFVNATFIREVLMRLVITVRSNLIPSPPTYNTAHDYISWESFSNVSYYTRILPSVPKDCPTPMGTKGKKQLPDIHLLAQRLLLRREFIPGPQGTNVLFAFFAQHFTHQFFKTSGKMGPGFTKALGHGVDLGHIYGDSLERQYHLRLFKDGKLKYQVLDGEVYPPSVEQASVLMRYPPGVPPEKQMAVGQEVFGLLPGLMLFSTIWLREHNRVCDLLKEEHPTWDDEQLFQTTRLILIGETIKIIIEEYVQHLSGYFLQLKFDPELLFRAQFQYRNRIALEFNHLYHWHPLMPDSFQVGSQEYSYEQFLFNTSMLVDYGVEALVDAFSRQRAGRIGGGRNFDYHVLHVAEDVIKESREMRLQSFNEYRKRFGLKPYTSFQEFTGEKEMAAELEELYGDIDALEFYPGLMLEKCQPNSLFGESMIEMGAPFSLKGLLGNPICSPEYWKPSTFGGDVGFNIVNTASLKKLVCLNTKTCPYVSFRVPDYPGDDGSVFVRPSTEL
It counts as functional.

Experiment [6] deals with 5-hydroxytryptamine receptor 2B (Homo sapiens, UniProt P41595). The experiment is classed as functional, cell-based.
Experiment [7] deals with Beta-1 adrenergic receptor (Homo sapiens, UniProt P08588). The experiment is classed as functional.
Further: assay procedure not described here.

Sequence of 5-hydroxytryptamine receptor 2B (P41595 whole entry): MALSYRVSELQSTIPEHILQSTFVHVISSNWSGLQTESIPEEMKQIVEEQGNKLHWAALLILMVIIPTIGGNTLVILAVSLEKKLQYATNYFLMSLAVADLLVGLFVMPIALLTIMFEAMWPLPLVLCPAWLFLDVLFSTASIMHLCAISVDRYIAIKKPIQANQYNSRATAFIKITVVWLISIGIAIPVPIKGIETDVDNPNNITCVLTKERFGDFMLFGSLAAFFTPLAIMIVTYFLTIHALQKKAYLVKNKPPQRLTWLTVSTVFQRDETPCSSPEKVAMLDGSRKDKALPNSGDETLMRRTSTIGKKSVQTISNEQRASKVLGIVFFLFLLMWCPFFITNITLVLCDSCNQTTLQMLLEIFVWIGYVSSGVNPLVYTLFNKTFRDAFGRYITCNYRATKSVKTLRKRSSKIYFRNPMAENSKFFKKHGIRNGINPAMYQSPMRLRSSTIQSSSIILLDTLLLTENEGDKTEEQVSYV
Sequence of Sodium-dependent noradrenaline transporter (P23975 whole entry): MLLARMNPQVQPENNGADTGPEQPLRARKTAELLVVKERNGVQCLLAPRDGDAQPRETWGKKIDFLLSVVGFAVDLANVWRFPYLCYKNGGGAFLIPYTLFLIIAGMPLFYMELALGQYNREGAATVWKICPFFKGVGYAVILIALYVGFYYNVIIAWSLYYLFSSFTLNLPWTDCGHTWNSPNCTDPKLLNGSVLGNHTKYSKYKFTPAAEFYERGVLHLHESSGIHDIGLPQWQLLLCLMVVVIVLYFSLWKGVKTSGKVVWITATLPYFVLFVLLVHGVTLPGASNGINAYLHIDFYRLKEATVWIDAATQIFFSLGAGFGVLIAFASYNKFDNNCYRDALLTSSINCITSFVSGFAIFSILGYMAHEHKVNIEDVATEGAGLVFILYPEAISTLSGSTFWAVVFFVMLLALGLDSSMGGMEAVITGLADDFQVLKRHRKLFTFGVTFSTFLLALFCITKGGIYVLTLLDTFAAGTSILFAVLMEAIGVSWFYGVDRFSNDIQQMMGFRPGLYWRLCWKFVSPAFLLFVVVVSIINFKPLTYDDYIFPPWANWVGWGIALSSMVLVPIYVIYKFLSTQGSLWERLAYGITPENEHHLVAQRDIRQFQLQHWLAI
Sequence of Beta-1 adrenergic receptor (P08588 whole entry): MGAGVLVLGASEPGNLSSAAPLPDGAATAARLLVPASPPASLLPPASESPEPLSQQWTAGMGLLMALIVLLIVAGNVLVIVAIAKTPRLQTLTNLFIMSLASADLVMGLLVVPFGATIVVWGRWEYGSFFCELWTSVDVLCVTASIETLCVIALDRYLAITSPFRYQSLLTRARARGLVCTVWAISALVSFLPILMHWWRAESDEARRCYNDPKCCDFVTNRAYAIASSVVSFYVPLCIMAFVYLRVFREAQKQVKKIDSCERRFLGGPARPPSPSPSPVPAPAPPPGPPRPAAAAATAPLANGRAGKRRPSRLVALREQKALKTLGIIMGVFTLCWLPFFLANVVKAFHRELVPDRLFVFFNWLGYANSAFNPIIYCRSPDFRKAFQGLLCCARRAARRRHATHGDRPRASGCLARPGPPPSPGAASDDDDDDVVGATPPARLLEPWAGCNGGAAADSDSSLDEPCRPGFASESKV
Sequence of Histamine H2 receptor (P25021 whole entry): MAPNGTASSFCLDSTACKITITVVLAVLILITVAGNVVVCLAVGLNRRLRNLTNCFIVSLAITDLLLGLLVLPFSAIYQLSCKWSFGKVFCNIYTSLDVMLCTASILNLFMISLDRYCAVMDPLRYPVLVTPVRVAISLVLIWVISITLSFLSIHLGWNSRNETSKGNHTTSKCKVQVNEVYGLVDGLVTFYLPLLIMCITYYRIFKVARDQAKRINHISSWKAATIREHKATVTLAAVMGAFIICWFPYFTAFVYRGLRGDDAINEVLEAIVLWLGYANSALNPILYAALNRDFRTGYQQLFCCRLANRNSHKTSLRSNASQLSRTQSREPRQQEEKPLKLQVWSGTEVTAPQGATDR

On to `COc1ccccc1N1CCN(CCCNc2cc(=O)n(C)c(=O)n2C)CC1`, for which the half-maximal activity concentration (AC50) (at Histamine H2 receptor; on Estrogen receptor; in experiment [1]; in experiment [2]; in [3]; in experiment [4]) was more than 30 µM in each case. In addition, the AC50 in experiment [5] is more than 30 µM; in experiment [6], 20 µM.

In the case of `COC(=O)C1=C(C)NC(C)=C(C(=O)OC2CCCN(Cc3ccccc3)C2)C1c1cccc([N+](=O)[O-])c1` (stereo unspecified) [BENIDIPINE], the AC50 is more than 30 µM at Histamine H2 receptor; more than 30 µM on Estrogen receptor; 18 µM in experiment [1]; 13 µM in experiment [2]; more than 30 µM in experiment [3]; more than 30 µM in [7]. For the same molecule, the AC50 in experiment [4], in [5] and in experiment [6] was more than 30 µM throughout.

For `CC(C[N+](C)(C)C)OC(N)=O` (stereo unspecified) [BETHANECHOL], the AC50 is more than 10 µM on Histamine H2 receptor; more than 10 µM at Estrogen receptor; more than 10 µM in experiment [1]; more than 10 µM in [2]; more than 30 µM in experiment [3]; more than 10 µM in [7]. Besides, the AC50 in experiment [4], in [5] and in [6] was more than 10 µM throughout.

Turning to `CO/N=C(\C(=O)N[C@@H]1C(=O)N2C(C(=O)O)=C(CSc3nnnn3C)CS[C@H]12)c1csc(N)n1` [CEFMENOXIME], the concentration at half-maximal activity (AC50) (on Histamine H2 receptor; on Estrogen receptor; in experiment [1]; in [2]; in experiment [7]; in experiment [5]) was more than 30 µM throughout. The same molecule displayed a half-maximal activity concentration (AC50) in experiment [6] of more than 30 µM.

For `O=C(O)C1=C(CSc2nnnn2CS(=O)(=O)O)CS[C@@H]2[C@H](NC(=O)[C@H](O)c3ccccc3)C(=O)N12` [CEFONICID], the concentration at half-maximal activity (AC50) (at Histamine H2 receptor; on Estrogen receptor; in [1]; in [2]; in experiment [3]; in [7]) was more than 30 µM each time. For the same molecule, the AC50 in [4], in experiment [5] and in [6] was more than 30 µM each time.

For the molecule `CC(=O)OCC(=O)[C@@]12N=C(C)O[C@@H]1C[C@H]1[C@@H]3CCC4=CC(=O)C=C[C@]4(C)[C@H]3[C@@H](O)C[C@@]12C` [DEFLAZACORT], the AC50 (at Histamine H2 receptor; on Estrogen receptor; in [1]; in experiment [2]; in experiment [3]; in experiment [7]) was more than 30 µM in each case. The AC50 in experiment [4], in experiment [5] and in experiment [6] was more than 30 µM in each case.

Take `CCCCCCOc1ccccc1C(N)=O` [EXALAMIDE]: the concentration at half-maximal activity (AC50) (on Histamine H2 receptor; at Estrogen receptor; in experiment [1]; in experiment [2]; in experiment [3]; in [7]) was more than 30 µM in each case. Also, the values for the AC50 in [4], in experiment [5] and in experiment [6] were more than 30 µM, more than 30 µM and 1.1 µM, respectively.

In the case of `CC(C(=O)O)c1ccc(N2Cc3ccccc3C2=O)cc1` (stereo unspecified) [INDOPROFEN], the AC50 (on Histamine H2 receptor; at Estrogen receptor; in experiment [1]; in experiment [2]; in [3]; in [7]) was more than 30 µM each time. The results for the AC50 in experiment [4], in [5] and in experiment [6] were more than 30 µM, 0.0694 µM and more than 30 µM, respectively.

Take `CC(C)(C)c1cc(C(C)(C)C)c(NC(=O)c2c[nH]c3ccccc3c2=O)cc1O` [IVACAFTOR]: the half-maximal activity concentration (AC50) on Histamine H2 receptor was more than 10 µM; at Estrogen receptor it was more than 30 µM; in [1], more than 10 µM; in [2], 6.5 µM; in experiment [3], more than 30 µM; in experiment [7] it was more than 10 µM. For the same molecule, the AC50 was more than 10 µM in [4], more than 30 µM in [5] and more than 10 µM in [6].

As for `CC(C)=CCC/C(C)=C/C=C/C(C)=C/C=C/C(C)=C/C=C/C=C(C)/C=C/C=C(C)/C=C/C=C(\C)CCC=C(C)C` [LYCOPENE], the AC50 was more than 30 µM at Histamine H2 receptor; more than 10 µM at Estrogen receptor; more than 30 µM in [1]; more than 30 µM in experiment [2]; more than 30 µM in experiment [3]; more than 30 µM in [7]. For the same molecule, the AC50 in experiment [4], in [5] and in [6] was more than 30 µM each time.

Take `CCOC(=O)[N-]c1cn(N2CCOCC2)n[o+]1` [MOLSIDOMINE]: the AC50 (at Histamine H2 receptor; at Estrogen receptor; in experiment [1]; in experiment [2]; in experiment [3]; in experiment [7]) was more than 30 µM each time. The figures for the concentration at half-maximal activity (AC50) in experiment [4], in experiment [5] and in experiment [6] were more than 30 µM, 24 µM and more than 30 µM, respectively.

On to `OC(CNCC(O)C1CCc2cc(F)ccc2O1)C1CCc2cc(F)ccc2O1` (stereo unspecified) [NEBIVOLOL], for which the concentration at half-maximal activity (AC50) was more than 30 µM at Histamine H2 receptor; more than 30 µM on Estrogen receptor; 19 µM in [1]; 1.5 µM in [2]; 20 µM in [3]; more than 30 µM in experiment [4]. Further, the figures for the AC50 in experiment [5] and in experiment [6] were more than 30 µM and 8.8 µM, respectively.

For the molecule `COc1ccc2c3c1O[C@H]1C(=O)CC[C@@]4(O)[C@@H](C2)N(C)CC[C@]314` [OXYCODONE], the AC50 (at Histamine H2 receptor; at Estrogen receptor; in experiment [1]; in experiment [2]; in experiment [3]; in experiment [7]) was more than 30 µM in each case. The concentration at half-maximal activity (AC50) in [4], in [5] and in experiment [6] was more than 30 µM each time.

For `CN1CCC(=C2c3ccccc3CCc3sccc32)CC1` [PIZOTYLINE], the AC50 was more than 10 µM at Histamine H2 receptor; more than 30 µM at Estrogen receptor; 0.093 µM in [1]; 1.1 µM in [2]; 0.017 µM in experiment [3]; more than 10 µM in experiment [7]. In addition, the AC50 in experiment [4] is more than 10 µM; in [5], more than 30 µM; in experiment [6] it was 0.0279 µM.

For the molecule `CC(CC(c1ccccc1)c1ccccc1)NC(C)(C)C` (stereo unspecified) [TERODILINE], the AC50 on Histamine H2 receptor is more than 30 µM; at Estrogen receptor, more than 30 µM; in experiment [1] it was 1.4 µM; in experiment [2] it was more than 30 µM; in experiment [3], more than 30 µM; in experiment [7] it was more than 30 µM. For the same molecule, the AC50 in experiment [4], in experiment [5] and in [6] was more than 30 µM each time.

For orientation: AC50 means the midpoint of the concentration-response curve, whichever way the signal moves. Higher therefore signals activity only at high concentration.
